From patent publication US12612410B2 (CHILDREN'S HOSPITAL MEDICAL CENTER, priority 2020, dated 2026)

Columns and labels:
MOLM14 D835Y cells = experiment: MOLM14 D835Y cell viability assay (Cell Titer Glo); type: cell-based; conditions: Homo sapiens, MOLM-14, 48 h
Method: (§1) Both cell lines have activated FLT3 receptors, each of which carry additional resistance mutations in the kinase domain (D835Y and F691L, respectively).
(§2) MOLM14 D835Y and MOLM14 F691L cells were grown in RPMI-1640 media supplemented with 20% fetal bovine serum (FBS). For viability/cytotoxicity assessments, cells were seeded into 1536-well white polystyrene tissue culture-treated Greiner plates using a Multidrop Combi dispenser (ThermoFisher), in final volume 5 μL of growth media per well, at a density of 1000 cells per well. After cell addition, 23 nL of test compound were transferred into individual wells (22 doses tested for each test compound, with a 1:2 dilution series starting at 10 μM) via a 1536 pin-tool. Bortezomib (final concentration 2.3 μM) was used as a positive control for cell cytotoxicity. Plates were incubated for 48 hours at standard incubator conditions covered by a stainless steel gasketed lid to prevent evaporation. 48 hours post compound addition, 3 μL of Cell Titer Glo (Promega) were added to each well and plates were incubated at room temperature for 15 minutes with the stainless-steel lid in place. Luminescence readings were taken using a Viewlux imager (PerkinElmer) with a 2 second exposure time per plate.

IRAK1 = target: T1, IRAK1 (Homo sapiens, UniProt P51617); experiment: RBC HotSpot Kinase Assay, IRAK1; type: biochemical; conditions: isolated kinase, 33P-ATP
T1 construct: purchased Reaction Biology (RBC), HotSpot kinase assay
In short: (§3)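 Functional radiometric activity assay: kinase + substrate + cofactors in Hepes pH 7.5/MgCl2/EGTA/Brij35/BSA/Na3VO4/DTT, 1% DMSO; cmpd preincubation 20 min RT; 33P-ATP start, 2 h RT; P81 filter-binding readout.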

MOLM14 F691L cells = experiment: MOLM14 F691L cell viability assay (Cell Titer Glo); type: cell-based; conditions: Homo sapiens, MOLM-14, 48 h
Method: as §1, §2

FLT3 = target: T2, FLT3 (Homo sapiens, UniProt P36888); experiment: RBC HotSpot Kinase Assay, FLT3; type: biochemical; parameters: purchased Reaction Biology (RBC), HotSpot kinase assay; conditions: isolated kinase, 33P-ATP
T2 sequence (P36888 27-993): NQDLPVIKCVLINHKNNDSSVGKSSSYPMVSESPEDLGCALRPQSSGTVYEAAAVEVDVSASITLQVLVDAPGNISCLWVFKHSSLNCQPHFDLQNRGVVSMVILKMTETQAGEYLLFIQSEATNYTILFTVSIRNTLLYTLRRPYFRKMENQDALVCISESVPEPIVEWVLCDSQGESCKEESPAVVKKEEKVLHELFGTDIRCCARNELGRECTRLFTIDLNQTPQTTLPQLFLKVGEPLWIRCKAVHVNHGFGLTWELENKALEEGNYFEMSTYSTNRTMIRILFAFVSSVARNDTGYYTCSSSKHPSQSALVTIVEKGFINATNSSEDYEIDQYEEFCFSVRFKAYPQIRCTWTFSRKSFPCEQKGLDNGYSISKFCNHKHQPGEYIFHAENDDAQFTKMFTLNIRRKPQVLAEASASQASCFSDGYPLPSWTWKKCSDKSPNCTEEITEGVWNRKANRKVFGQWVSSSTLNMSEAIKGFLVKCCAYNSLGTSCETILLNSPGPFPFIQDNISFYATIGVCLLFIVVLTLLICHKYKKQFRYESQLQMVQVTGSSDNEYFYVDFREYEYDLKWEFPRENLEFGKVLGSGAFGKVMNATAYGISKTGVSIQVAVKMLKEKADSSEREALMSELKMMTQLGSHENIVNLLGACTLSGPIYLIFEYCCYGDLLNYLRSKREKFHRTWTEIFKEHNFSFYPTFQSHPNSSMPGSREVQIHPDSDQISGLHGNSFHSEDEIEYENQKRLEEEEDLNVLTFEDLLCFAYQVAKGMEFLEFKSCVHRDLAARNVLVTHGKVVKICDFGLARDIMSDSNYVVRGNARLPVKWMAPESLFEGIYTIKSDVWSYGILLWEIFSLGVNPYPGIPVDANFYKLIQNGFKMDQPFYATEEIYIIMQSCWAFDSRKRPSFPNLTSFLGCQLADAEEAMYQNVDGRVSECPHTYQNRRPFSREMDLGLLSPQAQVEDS
In short: as §3

IRAK4 = target: T3, IRAK4 (Homo sapiens, UniProt Q9NWZ3); experiment: RBC HotSpot Kinase Assay, IRAK4; type: biochemical; parameters: purchased Reaction Biology (RBC), HotSpot kinase assay; conditions: isolated kinase, 33P-ATP
T3 sequence (Q9NWZ3 1-460): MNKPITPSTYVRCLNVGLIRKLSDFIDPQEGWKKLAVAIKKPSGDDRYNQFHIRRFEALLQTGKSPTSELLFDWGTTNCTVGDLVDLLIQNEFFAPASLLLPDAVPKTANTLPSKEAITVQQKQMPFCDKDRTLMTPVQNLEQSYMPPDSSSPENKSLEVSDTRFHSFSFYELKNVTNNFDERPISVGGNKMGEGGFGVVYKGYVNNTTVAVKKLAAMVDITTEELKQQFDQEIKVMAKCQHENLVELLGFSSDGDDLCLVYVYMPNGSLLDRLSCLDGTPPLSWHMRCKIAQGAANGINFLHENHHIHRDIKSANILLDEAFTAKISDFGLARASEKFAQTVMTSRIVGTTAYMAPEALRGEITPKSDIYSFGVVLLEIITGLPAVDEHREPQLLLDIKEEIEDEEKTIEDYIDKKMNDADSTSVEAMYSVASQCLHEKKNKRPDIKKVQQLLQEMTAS
In short: as §3

T1 sequence (P51617 whole entry): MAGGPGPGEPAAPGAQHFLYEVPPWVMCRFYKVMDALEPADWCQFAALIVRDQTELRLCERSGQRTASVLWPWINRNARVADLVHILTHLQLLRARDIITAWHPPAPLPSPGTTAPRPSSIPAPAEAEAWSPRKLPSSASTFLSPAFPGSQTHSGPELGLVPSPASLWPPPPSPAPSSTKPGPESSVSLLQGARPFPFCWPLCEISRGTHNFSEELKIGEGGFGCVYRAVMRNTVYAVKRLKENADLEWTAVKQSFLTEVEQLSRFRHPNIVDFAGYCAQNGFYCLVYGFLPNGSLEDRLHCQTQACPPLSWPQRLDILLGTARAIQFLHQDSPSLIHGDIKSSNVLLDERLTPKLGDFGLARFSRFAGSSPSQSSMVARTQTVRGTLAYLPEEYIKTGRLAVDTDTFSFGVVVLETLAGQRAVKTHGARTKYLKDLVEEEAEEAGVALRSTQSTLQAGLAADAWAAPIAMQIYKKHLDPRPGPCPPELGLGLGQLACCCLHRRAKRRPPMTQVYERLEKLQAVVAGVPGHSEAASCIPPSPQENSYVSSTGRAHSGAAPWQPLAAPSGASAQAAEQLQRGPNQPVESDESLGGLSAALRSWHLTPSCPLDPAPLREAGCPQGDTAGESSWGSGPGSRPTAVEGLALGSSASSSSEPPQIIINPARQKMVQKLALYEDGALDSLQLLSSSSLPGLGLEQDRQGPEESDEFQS

IC50 (MOLM14 D835Y cells) [nM] | IC50 (IRAK1) [nM] | IC50 (MOLM14 F691L cells) [nM] | IC50 (FLT3) [nM] | IC50 (IRAK4) [nM] | SMILES
21 | 77 | 159 | < 0.5 | 5 | F[C@H]1CCNC[C@@H]1Nc1cccc(-c2cnc3cnc(C4(C(F)(F)F)CC4)cn23)n1 [Compound 13, N-((3S,4S)-4-fluoropiperidin-3-yl)-6-(6-(1-(trifluoromethyl)cyclopropyl)imidazo[1,2-a]pyrazin-3-yl)pyridin-2-amine]
10 | 288 | 88 | < 0.5 | 5 | FC(F)c1cn2c(-c3cccc(N[C@@H]4CCCNC4)n3)cnc2cn1 [Compound 17, (R)-6-(6-(difluoromethyl)imidazo[1,2-a]pyrazin-3-yl)-N-(piperidin-3-yl)pyridin-2-amine]
2 | 32 | 19 | < 0.5 | < 0.5 | FC(F)c1cn2c(-c3cccc(N[C@H]4CNC[C@@H]4C(F)(F)F)n3)cnc2cn1 [Compound 19, 6-(6-(difluoromethyl)imidazo[1,2-a]pyrazin-3-yl)-N-((3R,4S)-4-(trifluoromethyl)pyrrolidin-3-yl)pyridin-2-amine]
94 | 220 | 502 | < 0.5 | 0.7 | CC(C)(O)c1cn2c(-c3cccc(N[C@H]4CNC[C@@H]4F)n3)cnc2cn1 [Compound 28, 2-(3-(6-(((3S,4S)-4-fluoropyrrolidin-3-yl)amino)pyridin-2-yl)imidazo[1,2-a]pyrazin-6-yl)propan-2-ol]
23 | 101 | 152 | < 0.5 | 2 | FC(F)(F)COc1cn2c(-c3cccc(N[C@H]4CNCC45CC5)n3)cnc2cn1 [Compound 40, (R)-N-(6-(6-(2,2,2-trifluoroethoxy)imidazo[1,2-a]pyrazin-3-yl)pyridin-2-yl)-5-azaspiro[2.4]heptan-7-amine]
9 | 60 | 38 | 0.6 | 3 | c1cc(N[C@@H]2CCCNC2)nc(-c2cnc3cnc(C4CC4)cn23)c1 [Compound 48, (R)-6-(6-cyclopropylimidazo[1,2-a]pyrazin-3-yl)-N-(piperidin-3-yl)pyridin-2-amine]
15 | 504 | 158 | < 0.5 | 4 | FC(F)COc1cn2c(-c3cccc(N[C@@H]4CCCNC4)n3)cnc2cn1 [Compound 75, (R)-6-(6-(2,2-difluoroethoxy)imidazo[1,2-a]pyrazin-3-yl)-N-(piperidin-3-yl)pyridin-2-amine]
21 | 43 | 193 | < 0.5 | 1 | O=S1(=O)CCCN1c1cn2c(-c3cccc(N[C@H]4CNC[C@@H]4F)n3)cnc2cn1 [Compound 95, 2-(3-(6-(((3S,4S)-4-fluoropyrrolidin-3-yl)amino)pyridin-2-yl)imidazo[1,2-a]pyrazin-6-yl)isothiazolidine 1,1-dioxide]
154 | 4240 | 1450 | 3 | 98 | O=C1COCCN1c1cn2c(-c3cccc(N[C@H]4CNC[C@@H]4F)n3)cnc2cn1 [Compound 110, 4-(3-(6-(((3S,4S)-4-fluoropyrrolidin-3-yl)amino)pyridin-2-yl)imidazo[1,2-a]pyrazin-6-yl)morpholin-3-one]

Further lines, the compound ahead of its results:

SMILES | IC50 (MOLM14 D835Y cells) [nM] | IC50 (IRAK1) [nM] | IC50 (MOLM14 F691L cells) [nM] | IC50 (FLT3) [nM] | IC50 (IRAK4) [nM]
F[C@H]1CNC[C@@H]1Nc1cccc(-c2cnc3cnccn23)n1 [Compound 68, N-((3S,4S)-4-fluoropyrrolidin-3-yl)-6-(imidazo[1,2-a]pyrazin-3-yl)pyridin-2-amine] | 47 | 727 | 473 | < 0.5 | 4
O=S1(=O)CCCCN1c1cn2c(-c3nc(N[C@@H]4CCCNC4)c(F)cc3F)cnc2cn1 [Compound 101, (R)-2-(3-(3,5-difluoro-6-(piperidin-3-ylamino)pyridin-2-yl)imidazo[1,2-a]pyrazin-6-yl)-1,2-thiazinane 1,1-dioxide] | 217 | 175 | 1540 | 0.9 | 24
O=S1(=O)CCCCN1c1cn2c(-c3nc(N[C@H]4CNC[C@@H]4F)c(F)cc3F)cnc2cn1 [Compound 102, 2-(3-(3,5-difluoro-6-(((3S,4S)-4-fluoropyrrolidin-3-yl)amino)pyridin-2-yl)imidazo[1,2-a]pyrazin-6-yl)-1,2-thiazinane 1,1-dioxide] | 386 | 281 | 4330 | 2 | 6
O=S1(=O)CCCCN1c1cn2c(-c3nc(N[C@H]4CNCC[C@@H]4F)c(F)cc3F)cnc2cn1 [Compound 103, 2-(3-(3,5-difluoro-6-(((3S,4S)-4-fluoropiperidin-3-yl)amino)pyridin-2-yl)imidazo[1,2-a]pyrazin-6-yl)-1,2-thiazinane 1,1-dioxide] | 193 | 265 | 1370 | 0.9 | 13
O=S1(=O)CCCN1c1cn2c(-c3nc(N[C@@H]4CCCNC4)c(F)cc3F)cnc2cn1 [Compound 104, (R)-2-(3-(3,5-difluoro-6-(piperidin-3-ylamino)pyridin-2-yl)imidazo[1,2-a]pyrazin-6-yl)isothiazolidine 1,1-dioxide] | 11 | 9 | 86 | < 0.5 | 1
O=S1(=O)CCCN1c1cn2c(-c3nc(N[C@H]4CNC[C@@H]4F)c(F)cc3F)cnc2cn1 [Compound 105, 2-(3-(3,5-difluoro-6-(((3S,4S)-4-fluoropyrrolidin-3-yl)amino)pyridin-2-yl)imidazo[1,2-a]pyrazin-6-yl)isothiazolidine 1,1-dioxide] | 55 | 22 | 686 | < 0.5 | 1
O=S1(=O)CCCN1c1cn2c(-c3nc(N[C@H]4CNCC[C@@H]4F)c(F)cc3F)cnc2cn1 [Compound 106, 2-(3-(3,5-difluoro-6-(((3S,4S)-4-fluoropiperidin-3-yl)amino)pyridin-2-yl)imidazo[1,2-a]pyrazin-6-yl)isothiazolidine 1,1-dioxide] | 17 | 21 | 122 | < 0.5 | 3
O=C1CCCN1c1cn2c(-c3nc(N[C@H]4CNC[C@@H]4F)c(F)cc3F)cnc2cn1 [Compound 109, 1-(3-(3,5-difluoro-6-(((3S,4S)-4-fluoropyrrolidin-3-yl)amino)pyridin-2-yl)imidazo[1,2-a]pyrazin-6-yl)pyrrolidin-2-one] | 137 | 52 | 1930 | 0.7 | 4
